Experimental data as given in ChEMBL document CHEMBL4507304, “Data for DCP probe TP-021” (2021).

Experiments:
[1] = molecular target: Sodium-dependent noradrenaline transporter (Homo sapiens) (UniProt P23975); conditions: Compound concentration 10.0 uM
[2] = molecular target: Serine/threonine-protein kinase WNK4 (Homo sapiens) (UniProt Q96J92); conditions: Compound concentration 1000.0 nM
[3] = molecular target: Serine/threonine-protein kinase OSR1 (Homo sapiens) (UniProt O95747); conditions: Compound concentration 1000.0 nM
[4] = molecular target: Ribosomal protein S6 kinase alpha-2 (Homo sapiens) (UniProt Q15349); conditions: Compound concentration 1000.0 nM
[5] = molecular target: Mitogen-activated protein kinase 9 (Homo sapiens) (UniProt P45984); conditions: Compound concentration 1000.0 nM
[6] = molecular target: Dual specificity tyrosine-phosphorylation-regulated kinase 2 (Homo sapiens) (UniProt Q92630); conditions: Compound concentration 1000.0 nM
[7] = tested on: Tyrosine-protein kinase ABL1 (Homo sapiens), P00519 [F317L]; conditions: Compound concentration 1000.0 nM
[8] = molecular target: Serine/threonine-protein kinase PknB (Mycobacterium tuberculosis) (UniProt P9WI81); conditions: Compound concentration 1000.0 nM
[9] = molecular target: Maternal embryonic leucine zipper kinase (Homo sapiens) (UniProt Q14680); conditions: Compound concentration 1000.0 nM
[10] = molecular target: NUAK family SNF1-like kinase 2 (Homo sapiens) (UniProt Q9H093); conditions: Compound concentration 1000.0 nM
[11] = molecular target: Mitogen-activated protein kinase kinase kinase 15 (Homo sapiens) (UniProt Q6ZN16); conditions: Compound concentration 1000.0 nM
[12] = molecular target: Mitogen-activated protein kinase kinase kinase 11 (Homo sapiens) (UniProt Q16584); conditions: Compound concentration 1000.0 nM
[13] = molecular target: Mitogen-activated protein kinase 11 (Homo sapiens) (UniProt Q15759); conditions: Compound concentration 1000.0 nM
[14] = molecular target: Serine/threonine-protein kinase MRCK alpha (Homo sapiens) (UniProt Q5VT25); conditions: Compound concentration 1000.0 nM
[15] = molecular target: Protein kinase C theta type (Homo sapiens) (UniProt Q04759); conditions: Compound concentration 1000.0 nM
[16] = molecular target: Serine/threonine-protein kinase LATS2 (Homo sapiens) (UniProt Q9NRM7); conditions: Compound concentration 1000.0 nM
[17] = molecular target: Cyclin-dependent kinase 13 (Homo sapiens) (UniProt Q14004); conditions: Compound concentration 1000.0 nM
[18] = molecular target: Serine/threonine-protein kinase PLK3 (Homo sapiens) (UniProt Q9H4B4); conditions: Compound concentration 1000.0 nM
[19] = tested on: ALK tyrosine kinase receptor (Homo sapiens), Q9UM73 [L1196M]; conditions: Compound concentration 1000.0 nM
[20] = tested on: Epidermal growth factor receptor (Homo sapiens), P00533 [L861Q]; conditions: Compound concentration 1000.0 nM
[21] = molecular target: Muscarinic acetylcholine receptor M1 (Homo sapiens) (UniProt P11229); conditions: Compound concentration 10.0 uM
[22] = molecular target: Phosphatidylinositol 4,5-bisphosphate 3-kinase catalytic subunit beta isoform (Homo sapiens) (UniProt P42338); conditions: Compound concentration 1000.0 nM
[23] = molecular target: Ephrin type-A receptor 7 (Homo sapiens) (UniProt Q15375); conditions: Compound concentration 1000.0 nM
Sequence of Ephrin type-A receptor 7 (Homo sapiens) (Q15375 28-998 limits assumed): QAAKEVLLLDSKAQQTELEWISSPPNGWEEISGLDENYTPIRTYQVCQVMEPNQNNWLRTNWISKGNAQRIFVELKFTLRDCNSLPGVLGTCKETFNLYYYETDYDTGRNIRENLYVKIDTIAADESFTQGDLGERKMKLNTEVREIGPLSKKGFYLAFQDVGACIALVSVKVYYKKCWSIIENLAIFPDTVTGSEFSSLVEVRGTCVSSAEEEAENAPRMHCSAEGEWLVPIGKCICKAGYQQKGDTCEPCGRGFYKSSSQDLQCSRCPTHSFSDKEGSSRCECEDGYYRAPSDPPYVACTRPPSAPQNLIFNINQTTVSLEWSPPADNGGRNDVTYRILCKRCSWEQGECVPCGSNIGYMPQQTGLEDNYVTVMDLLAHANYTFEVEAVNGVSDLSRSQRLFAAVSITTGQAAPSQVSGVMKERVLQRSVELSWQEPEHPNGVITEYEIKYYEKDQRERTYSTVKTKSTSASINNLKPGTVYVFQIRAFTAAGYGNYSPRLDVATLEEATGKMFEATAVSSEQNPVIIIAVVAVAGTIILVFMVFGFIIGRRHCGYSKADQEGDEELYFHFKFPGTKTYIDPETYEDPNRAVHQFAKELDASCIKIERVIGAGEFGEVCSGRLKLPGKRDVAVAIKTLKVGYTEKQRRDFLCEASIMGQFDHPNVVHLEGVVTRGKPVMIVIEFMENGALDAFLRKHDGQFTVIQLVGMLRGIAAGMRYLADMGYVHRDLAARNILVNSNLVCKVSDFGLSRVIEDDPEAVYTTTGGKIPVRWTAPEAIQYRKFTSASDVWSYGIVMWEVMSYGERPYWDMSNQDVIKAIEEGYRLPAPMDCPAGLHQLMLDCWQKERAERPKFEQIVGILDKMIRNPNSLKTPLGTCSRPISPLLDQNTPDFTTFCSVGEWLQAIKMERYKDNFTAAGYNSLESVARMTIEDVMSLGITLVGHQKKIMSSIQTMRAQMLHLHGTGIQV

[24] = molecular target: Serine/threonine-protein kinase Chk1 (Homo sapiens) (UniProt O14757); conditions: Compound concentration 1000.0 nM
[25] = molecular target: Ribosomal protein S6 kinase alpha-6 (Homo sapiens) (UniProt Q9UK32); conditions: Compound concentration 1000.0 nM
Sequence of Ribosomal protein S6 kinase alpha-6 (Homo sapiens) (Q9UK32 whole entry): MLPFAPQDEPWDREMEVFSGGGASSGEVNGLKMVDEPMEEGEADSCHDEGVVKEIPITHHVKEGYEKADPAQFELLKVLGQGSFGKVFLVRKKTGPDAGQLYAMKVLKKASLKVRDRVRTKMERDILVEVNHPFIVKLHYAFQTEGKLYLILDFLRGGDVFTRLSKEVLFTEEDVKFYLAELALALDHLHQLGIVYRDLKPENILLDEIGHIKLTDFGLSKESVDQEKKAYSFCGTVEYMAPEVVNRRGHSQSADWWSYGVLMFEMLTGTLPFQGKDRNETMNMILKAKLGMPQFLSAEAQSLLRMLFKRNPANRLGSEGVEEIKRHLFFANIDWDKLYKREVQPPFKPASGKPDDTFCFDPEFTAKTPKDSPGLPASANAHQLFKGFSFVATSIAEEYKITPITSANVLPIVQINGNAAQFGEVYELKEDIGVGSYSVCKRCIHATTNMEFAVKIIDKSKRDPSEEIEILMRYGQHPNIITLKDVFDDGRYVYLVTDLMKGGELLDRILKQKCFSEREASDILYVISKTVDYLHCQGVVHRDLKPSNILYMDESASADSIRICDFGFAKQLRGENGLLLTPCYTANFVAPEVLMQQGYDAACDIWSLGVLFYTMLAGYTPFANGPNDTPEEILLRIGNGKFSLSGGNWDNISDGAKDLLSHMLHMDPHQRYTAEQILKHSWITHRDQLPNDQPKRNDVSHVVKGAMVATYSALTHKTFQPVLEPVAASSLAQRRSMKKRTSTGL

[26] = molecular target: Serine/threonine-protein kinase NIM1 (Homo sapiens) (UniProt Q8IY84); conditions: Compound concentration 1000.0 nM
[27] = molecular target: Ribosomal protein S6 kinase beta-1 (Homo sapiens) (UniProt P23443); conditions: Compound concentration 1000.0 nM
Sequence of Ribosomal protein S6 kinase beta-1 (Homo sapiens) (P23443 whole entry, looked up): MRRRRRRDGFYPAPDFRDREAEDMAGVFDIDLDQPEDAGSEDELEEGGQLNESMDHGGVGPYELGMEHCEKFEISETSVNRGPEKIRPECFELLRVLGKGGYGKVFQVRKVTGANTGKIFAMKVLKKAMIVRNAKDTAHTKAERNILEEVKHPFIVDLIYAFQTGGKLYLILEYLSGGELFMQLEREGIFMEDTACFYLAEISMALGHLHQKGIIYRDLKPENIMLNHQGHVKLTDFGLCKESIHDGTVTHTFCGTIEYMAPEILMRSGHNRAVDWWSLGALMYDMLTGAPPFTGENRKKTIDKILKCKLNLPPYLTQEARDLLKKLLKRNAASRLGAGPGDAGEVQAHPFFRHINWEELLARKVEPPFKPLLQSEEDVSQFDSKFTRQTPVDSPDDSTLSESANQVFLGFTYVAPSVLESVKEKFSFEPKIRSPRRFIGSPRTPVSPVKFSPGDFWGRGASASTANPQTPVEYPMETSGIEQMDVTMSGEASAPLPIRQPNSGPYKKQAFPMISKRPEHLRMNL

[28] = molecular target: Receptor tyrosine-protein kinase erbB-4 (Homo sapiens) (UniProt Q15303); conditions: Compound concentration 1000.0 nM
[29] = molecular target: Insulin-like growth factor 1 receptor (Homo sapiens) (UniProt P08069); conditions: Compound concentration 1000.0 nM
[30] = molecular target: Phosphatidylinositol 5-phosphate 4-kinase type-2 gamma (Homo sapiens) (UniProt Q8TBX8); conditions: Compound concentration 1000.0 nM
[31] = tested on: Receptor-type tyrosine-protein kinase FLT3 (Homo sapiens), P36888 [UNDEFINED MUTATION]; conditions: Compound concentration 1000.0 nM
[32] = molecular target: Ephrin type-A receptor 8 (Homo sapiens) (UniProt P29322); conditions: Compound concentration 1000.0 nM
Sequence of Ephrin type-A receptor 8 (Homo sapiens) (P29322 whole entry): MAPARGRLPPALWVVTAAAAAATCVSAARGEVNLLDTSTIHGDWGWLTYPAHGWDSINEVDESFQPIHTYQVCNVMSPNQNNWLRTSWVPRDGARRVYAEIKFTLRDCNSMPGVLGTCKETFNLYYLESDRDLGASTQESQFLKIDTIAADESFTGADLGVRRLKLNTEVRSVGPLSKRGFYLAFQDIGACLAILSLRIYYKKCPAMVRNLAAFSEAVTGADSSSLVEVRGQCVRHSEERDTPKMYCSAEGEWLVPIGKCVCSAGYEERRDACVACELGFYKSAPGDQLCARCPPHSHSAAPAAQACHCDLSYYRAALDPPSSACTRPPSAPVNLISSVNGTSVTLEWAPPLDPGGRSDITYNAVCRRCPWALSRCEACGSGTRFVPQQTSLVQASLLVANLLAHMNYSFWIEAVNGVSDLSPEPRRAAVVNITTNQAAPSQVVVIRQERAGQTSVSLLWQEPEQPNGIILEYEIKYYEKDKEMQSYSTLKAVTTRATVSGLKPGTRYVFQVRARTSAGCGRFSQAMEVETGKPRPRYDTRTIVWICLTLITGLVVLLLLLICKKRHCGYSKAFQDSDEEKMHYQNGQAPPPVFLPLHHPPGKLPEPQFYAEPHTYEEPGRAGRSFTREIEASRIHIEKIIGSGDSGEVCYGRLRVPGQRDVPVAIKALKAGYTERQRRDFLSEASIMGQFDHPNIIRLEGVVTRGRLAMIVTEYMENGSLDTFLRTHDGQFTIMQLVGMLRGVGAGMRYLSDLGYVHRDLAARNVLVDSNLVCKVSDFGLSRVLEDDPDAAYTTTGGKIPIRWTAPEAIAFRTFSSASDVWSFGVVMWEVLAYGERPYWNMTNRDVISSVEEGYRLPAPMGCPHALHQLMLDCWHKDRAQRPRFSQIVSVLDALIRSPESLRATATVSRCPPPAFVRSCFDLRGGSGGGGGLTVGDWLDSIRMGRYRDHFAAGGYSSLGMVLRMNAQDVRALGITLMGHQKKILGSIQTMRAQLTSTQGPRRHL

[33] = tested on: Mast/stem cell growth factor receptor Kit (Homo sapiens), P10721 [L576P]; conditions: Compound concentration 1000.0 nM
[34] = molecular target: Serine/threonine-protein kinase mTOR (Homo sapiens) (UniProt P42345); conditions: Compound concentration 1000.0 nM
[35] = molecular target: Atypical kinase COQ8A, mitochondrial (Homo sapiens) (UniProt Q8NI60); conditions: Compound concentration 1000.0 nM
[36] = molecular target: Serine/threonine-protein kinase 3 (Homo sapiens) (UniProt Q13188); conditions: Compound concentration 1000.0 nM
[37] = tested on: Receptor-type tyrosine-protein kinase FLT3 (Homo sapiens), P36888 [K663Q]; conditions: Compound concentration 1000.0 nM
[38] = molecular target: Serine/threonine-protein kinase PAK 2 (Homo sapiens) (UniProt Q13177); conditions: Compound concentration 1000.0 nM
Sequence of Serine/threonine-protein kinase PAK 2 (Homo sapiens) (Q13177 whole entry): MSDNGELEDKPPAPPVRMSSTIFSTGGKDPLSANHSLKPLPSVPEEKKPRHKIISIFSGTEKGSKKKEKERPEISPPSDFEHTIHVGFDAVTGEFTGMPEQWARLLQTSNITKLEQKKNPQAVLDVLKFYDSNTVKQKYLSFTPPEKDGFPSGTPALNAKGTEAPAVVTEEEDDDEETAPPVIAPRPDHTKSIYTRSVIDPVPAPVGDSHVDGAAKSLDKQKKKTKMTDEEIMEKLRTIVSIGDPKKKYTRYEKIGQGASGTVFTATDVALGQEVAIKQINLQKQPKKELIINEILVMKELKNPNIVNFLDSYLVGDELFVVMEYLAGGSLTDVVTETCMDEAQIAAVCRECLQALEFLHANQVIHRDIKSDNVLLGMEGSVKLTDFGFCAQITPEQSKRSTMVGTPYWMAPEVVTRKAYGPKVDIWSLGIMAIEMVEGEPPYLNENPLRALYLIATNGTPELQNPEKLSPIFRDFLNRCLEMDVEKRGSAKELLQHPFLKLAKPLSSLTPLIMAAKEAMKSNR

[39] = molecular target: Homeodomain-interacting protein kinase 2 (Homo sapiens) (UniProt Q9H2X6); conditions: Compound concentration 1000.0 nM
[40] = molecular target: Cyclin-dependent kinase 4 (Homo sapiens) (UniProt P11802); conditions: Compound concentration 1000.0 nM
Sequence of Cyclin-dependent kinase 4 (Homo sapiens) (P11802 whole entry): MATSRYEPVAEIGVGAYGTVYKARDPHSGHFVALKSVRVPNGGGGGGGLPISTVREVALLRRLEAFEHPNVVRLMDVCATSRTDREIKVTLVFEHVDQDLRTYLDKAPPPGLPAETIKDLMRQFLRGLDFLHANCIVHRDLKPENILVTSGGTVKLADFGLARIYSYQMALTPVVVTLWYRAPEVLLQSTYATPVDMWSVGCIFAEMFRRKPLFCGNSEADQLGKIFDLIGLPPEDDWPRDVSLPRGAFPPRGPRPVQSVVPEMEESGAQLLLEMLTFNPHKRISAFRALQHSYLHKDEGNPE

[41] = molecular target: Cyclin-dependent kinase 18 (Homo sapiens) (UniProt Q07002); conditions: Compound concentration 1000.0 nM
[42] = molecular target: Protein-tyrosine kinase 2-beta (Homo sapiens) (UniProt Q14289); conditions: Compound concentration 1000.0 nM
[43] = molecular target: Casein kinase I isoform alpha (Homo sapiens) (UniProt P48729); conditions: Compound concentration 1000.0 nM
Sequence of Casein kinase I isoform alpha (Homo sapiens) (P48729 2-337 limits assumed): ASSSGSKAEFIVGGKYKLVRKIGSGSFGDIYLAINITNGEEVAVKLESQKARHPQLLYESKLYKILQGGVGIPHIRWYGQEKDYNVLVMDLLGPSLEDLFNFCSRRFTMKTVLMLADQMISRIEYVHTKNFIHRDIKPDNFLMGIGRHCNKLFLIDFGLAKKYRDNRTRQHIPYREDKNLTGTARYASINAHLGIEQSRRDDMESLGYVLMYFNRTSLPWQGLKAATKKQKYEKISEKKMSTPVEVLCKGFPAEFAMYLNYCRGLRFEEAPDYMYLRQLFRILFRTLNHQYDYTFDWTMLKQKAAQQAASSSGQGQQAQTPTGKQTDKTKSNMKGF

[44] = molecular target: Mitogen-activated protein kinase 4 (Homo sapiens) (UniProt P31152); conditions: Compound concentration 1000.0 nM
Sequence of Mitogen-activated protein kinase 4 (Homo sapiens) (P31152 whole entry): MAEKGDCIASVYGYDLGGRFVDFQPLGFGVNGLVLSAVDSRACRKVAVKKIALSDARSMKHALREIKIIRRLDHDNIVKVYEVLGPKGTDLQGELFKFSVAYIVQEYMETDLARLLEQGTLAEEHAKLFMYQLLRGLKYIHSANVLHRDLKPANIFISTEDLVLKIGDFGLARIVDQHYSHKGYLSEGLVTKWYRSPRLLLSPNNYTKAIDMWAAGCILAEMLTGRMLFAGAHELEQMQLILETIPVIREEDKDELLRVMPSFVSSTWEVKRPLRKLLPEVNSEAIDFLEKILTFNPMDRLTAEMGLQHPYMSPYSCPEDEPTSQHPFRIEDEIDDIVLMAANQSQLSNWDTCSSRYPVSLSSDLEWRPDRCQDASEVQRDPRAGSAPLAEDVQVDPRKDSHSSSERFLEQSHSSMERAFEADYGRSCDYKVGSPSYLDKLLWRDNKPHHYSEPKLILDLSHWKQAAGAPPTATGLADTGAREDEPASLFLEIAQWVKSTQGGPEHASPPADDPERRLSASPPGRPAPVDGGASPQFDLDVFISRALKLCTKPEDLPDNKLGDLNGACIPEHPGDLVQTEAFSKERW

[45] = molecular target: Cyclin-dependent kinase 8 (Homo sapiens) (UniProt P49336); conditions: Compound concentration 1000.0 nM

N#Cc1ccc(Nc2ccc3[nH]c(=O)[nH]c3c2)c(Cl)c1
inactive: inhibition [1] -2.68% | residual activity [2] 100% | residual activity [3] 75% | residual activity [4] 100% | residual activity [5] 100% | residual activity [6] 85% | residual activity [7] 100% | residual activity [8] 100% | residual activity [9] 95% | residual activity [10] 100% | residual activity [11] 68% | residual activity [12] 100% | residual activity [13] 100% | residual activity [14] 100% | residual activity [15] 90% | residual activity [16] 95% | residual activity [17] 100% | residual activity [18] 84% | residual activity [19] 100% | residual activity [20] 100% | inhibition [21] -9.92% | residual activity [22] 100% | residual activity [23] 100% | residual activity [24] 98% | residual activity [25] 100% | residual activity [26] 100% | residual activity [27] 100% | residual activity [28] 100% | residual activity [29] 99% | residual activity [30] 100% | residual activity [31] 100% | residual activity [32] 100% | residual activity [33] 89% | residual activity [34] 98% | residual activity [35] 100% | residual activity [36] 100% | residual activity [37] 92% | residual activity [38] 79% | residual activity [39] 100% | residual activity [40] 86% | residual activity [41] 100% | residual activity [42] 100% | residual activity [43] 100% | residual activity [44] 100% | residual activity [45] 100%

O=C1CCc2cc(Nc3cc(OC4CCOCC4)c([N+](=O)[O-])cc3Cl)ccc2N1
inactive: inhibition [1] 0.76% | residual activity [2] 100% | residual activity [3] 83% | residual activity [4] 92% | residual activity [5] 86% | residual activity [6] 97% | residual activity [7] 74% | residual activity [8] 94% | residual activity [9] 77% | residual activity [10] 89% | residual activity [11] 78% | residual activity [12] 100% | residual activity [13] 88% | residual activity [14] 91% | residual activity [15] 92% | residual activity [16] 80% | residual activity [17] 100% | residual activity [18] 88% | residual activity [19] 100% | residual activity [20] 100% | inhibition [21] -4.43% | residual activity [22] 97% | residual activity [23] 75% | residual activity [24] 95% | residual activity [25] 91% | residual activity [26] 100% | residual activity [27] 100% | residual activity [28] 100% | residual activity [29] 86% | residual activity [30] 100% | residual activity [31] 100% | residual activity [32] 100% | residual activity [33] 100% | residual activity [34] 89% | residual activity [35] 100% | residual activity [36] 100% | residual activity [37] 100% | residual activity [38] 96% | residual activity [39] 100% | residual activity [40] 78% | residual activity [41] 100% | residual activity [42] 83% | residual activity [43] 100% | residual activity [44] 100% | residual activity [45] 100%
